Experimental data: the supplement of paper PMC10307832

Compound: NCC(=O)Nc1ccc(-n2nc(C(F)(F)F)cc2-c2ccc3c(ccc4ccccc43)c2)cc1 + CS(=O)(=O)N1CCN(Cc2cc3nc(-c4cccc5[nH]ncc45)nc(N4CCOCC4)c3s2)CC1 [Pictilisib] (partner 1 µM)
Assay: relative viability (nuclei count vs DMSO), 5 days (fraction); higher = more cells survive
Conditions: first compound 0.06325 µM
Procedure, shortened: (§1)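 The day after seeding in 1536-well plates, lung cancer cell lines were treated by pin tool with a single drug, or with a fixed anchor-drug dose together with five library-drug doses (not always all listed) in √10 steps. After 5 days, a combined fix-and-stain solution (final 0.05% Triton X-100, 1% formaldehyde, 1 ug/ml Hoechst) was added. Nuclei counted on 4× images gave relative viability as treated counts over vehicle counts, reported as the median of duplicate plates.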

Row | Cell Line | relative viability
1 | LCLC-103H | 0.61
2 | Calu-6 | 0.891
3 | IA-LM | 0.356
4 | HCC-44 | 0.638
5 | NCI-H1299 | 0.8
6 | CAL-12T | 0.617
7 | NCI-H2228 | 0.471
8 | NCI-H1792 | 0.319
9 | NCI-H1563 | 0.683

Same assay, conditions: first compound 0.2 µM

Row | Cell Line | relative viability
10 | NCI-H727 | 0.406
11 | NCI-H1650 | 0.215
12 | EBC-1 | 0.434
13 | NCI-H1703 | 0.278
14 | NCI-H1993 | 0.738
15 | SW 1573 | 0.493
16 | NCI-H838 | 0.5
17 | LCLC-103H | 0.571
18 | Calu-6 | 0.975
19 | IA-LM | 0.302
20 | HCC-44 | 0.633
21 | NCI-H1299 | 0.804
22 | CAL-12T | 0.481
23 | NCI-H2228 | 0.355
24 | NCI-H1792 | 0.277
25 | NCI-H1563 | 0.669

Same assay, conditions: first compound 0.6325 µM

Row | Cell Line | relative viability
26 | NCI-H727 | 0.362
27 | NCI-H1650 | 0.652
28 | EBC-1 | 0.36
29 | NCI-H1703 | 0.255
30 | NCI-H1993 | 0.838
31 | SW 1573 | 0.514
32 | NCI-H838 | 0.432
33 | LCLC-103H | 0.648
34 | Calu-6 | 0.949
35 | IA-LM | 0.477
36 | HCC-44 | 0.684
37 | NCI-H1299 | 0.781
38 | CAL-12T | 0.404
39 | NCI-H2228 | 0.299
40 | NCI-H1792 | 0.315
41 | NCI-H1563 | 0.611

Same assay, conditions: first compound 2 µM

Row | Cell Line | relative viability
42 | NCI-H727 | 0.533
43 | NCI-H1650 | 0.556
44 | EBC-1 | 0.404
45 | NCI-H1703 | 0.262
46 | NCI-H1993 | 0.861
47 | SW 1573 | 0.486
48 | NCI-H838 | 0.45
49 | LCLC-103H | 0.673
50 | Calu-6 | 0.93
51 | IA-LM | 0.288
52 | HCC-44 | 0.659
53 | NCI-H1299 | 0.732
54 | CAL-12T | 0.475
55 | NCI-H2228 | 0.481
56 | NCI-H1792 | 0.344
57 | NCI-H1563 | 0.622

Compound: NCC(=O)Nc1ccc(-n2nc(C(F)(F)F)cc2-c2ccc3c(ccc4ccccc43)c2)cc1 + COc1cc2c(Oc3ccc(NC(=O)C4(C(=O)Nc5ccc(F)cc5)CC4)cc3F)ccnc2cc1OCCCN1CCOCC1 [Foretinib] (partner 0.25 µM)
Assay: as above
Conditions: first compound 0.02 µM
Procedure, shortened: as §1

Row | Cell Line | relative viability
58 | NCI-H2342 | 1.05
59 | NCI-H1623 | 1.02
60 | NCI-H727 | 0.912
61 | NCI-H1650 | 1.42
62 | EBC-1 | 0.0952
63 | NCI-H1703 | 0.32
64 | NCI-H1993 | 0.861
65 | SW 1573 | 0.986
66 | NCI-H838 | 1.1
67 | LCLC-103H | 0.703
68 | Calu-6 | 0.843
69 | IA-LM | 1.26
70 | NCI-H1299 | 1.16
71 | CAL-12T | 1.28
72 | NCI-H2228 | 1.05
73 | NCI-H1563 | 0.958

Same assay, conditions: first compound 0.06325 µM

Row | Cell Line | relative viability
74 | NCI-H2342 | 1.16
75 | NCI-H1623 | 0.935
76 | NCI-H727 | 0.92
77 | NCI-H1650 | 1.25
78 | EBC-1 | 0.0845
79 | NCI-H1703 | 0.289
80 | NCI-H1993 | 0.819
81 | SW 1573 | 0.867
82 | NCI-H838 | 1.02
83 | LCLC-103H | 0.71
84 | Calu-6 | 0.87
85 | IA-LM | 1.05
86 | SW 900 | 1
87 | NCI-H1299 | 1.12
88 | CAL-12T | 1.29
89 | NCI-H2228 | 0.974
90 | NCI-H1563 | 1.04

Same assay, conditions: first compound 0.2 µM

Row | Cell Line | relative viability
91 | NCI-H2342 | 1.18
92 | NCI-H1623 | 0.77
93 | NCI-H727 | 1.21
94 | EBC-1 | 0.105
95 | NCI-H1703 | 0.412
96 | NCI-H1993 | 0.814
97 | SW 1573 | 0.87
98 | NCI-H838 | 1.12
99 | LCLC-103H | 0.938
100 | Calu-6 | 0.857
101 | IA-LM | 1.14
102 | SW 900 | 0.863
103 | NCI-H1299 | 1.14
104 | CAL-12T | 1.15
105 | NCI-H2228 | 0.889
106 | NCI-H1563 | 0.94

Same assay, conditions: first compound 0.6325 µM

Row | Cell Line | relative viability
107 | NCI-H2342 | 0.97
108 | NCI-H1623 | 0.84
109 | NCI-H727 | 1.07
110 | NCI-H1650 | 1.43
111 | EBC-1 | 0.0991
112 | NCI-H1703 | 0.323
113 | NCI-H1993 | 0.796
114 | SW 1573 | 0.895
115 | NCI-H838 | 1
116 | LCLC-103H | 0.754
117 | Calu-6 | 0.896
118 | IA-LM | 1.01
119 | SW 900 | 0.855
120 | NCI-H1299 | 1.04
121 | CAL-12T | 1.14
122 | NCI-H2228 | 0.97
123 | NCI-H1563 | 0.984

Same assay, conditions: first compound 2 µM

Row | Cell Line | relative viability
124 | NCI-H2342 | 1.24
125 | NCI-H1623 | 0.923
126 | NCI-H727 | 1.04
127 | NCI-H1650 | 1.19
128 | EBC-1 | 0.0847
129 | NCI-H1703 | 0.34
130 | NCI-H1993 | 0.835
131 | SW 1573 | 0.905
132 | NCI-H838 | 0.969
133 | LCLC-103H | 0.736
134 | Calu-6 | 0.891
135 | IA-LM | 1.19
136 | SW 900 | 1.04
137 | NCI-H1299 | 1.15
138 | CAL-12T | 1.12
139 | NCI-H2228 | 0.972
140 | NCI-H1563 | 0.971
